Structures can show the parent of a compound that is named as a salt.

The term IC50 denotes the concentration needed to halve the response being measured. The low end stands for greater potency in that assay, the high end for weaker potency in that assay.

human NK1R, sequence (P25103 whole entry): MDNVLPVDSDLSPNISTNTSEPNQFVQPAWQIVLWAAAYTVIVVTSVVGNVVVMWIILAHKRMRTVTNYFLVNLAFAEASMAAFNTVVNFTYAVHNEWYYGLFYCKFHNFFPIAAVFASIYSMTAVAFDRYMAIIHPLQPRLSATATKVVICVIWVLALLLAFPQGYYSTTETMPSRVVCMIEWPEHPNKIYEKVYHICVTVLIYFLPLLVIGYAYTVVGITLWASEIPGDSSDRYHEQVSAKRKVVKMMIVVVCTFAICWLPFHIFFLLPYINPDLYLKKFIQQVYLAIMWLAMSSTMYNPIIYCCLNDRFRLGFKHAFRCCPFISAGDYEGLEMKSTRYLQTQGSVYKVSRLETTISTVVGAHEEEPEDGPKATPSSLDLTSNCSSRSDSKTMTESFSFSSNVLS

In the first experiment the target is human NK1R (Homo sapiens, UniProt P25103). As to the kind of experiment: biochemical. The settings on record: 1 h; @ 1 μM; read-out: Substance P antagonism (%). It is filed as binding. The method, then:
To express the cloned human neurokinin-1-receotor (NK1R) transiently in COS, the cDNA for the human NK1R was cloned into the expression vector pCDM9 which was derived from pCDM8 (INVITROGEN) by inserting the ampicillin resistance gene (nucleotide 1973 to 2964 from BLUESCRIPT SK+ (trademark, […], La Jolla, Calif., U.S.A.)) into the Sac II site. Transfection of 20 ug of the plasmid DNA into 10 million COS cells was achieved by electroporation in 800 μl of transfection buffer (135 mM NaCl, 1.2 mM CaCl2, 1.2 mM MgCl2, 2.4 mM K2 HPO4, 0.6 mM KH2 PO4, 10 mM glucose, 10 mM N-2-hydroxyethyl-piperazine-N'-2-ethane sulphonic acid (HEPES) pH 7.4) at 260 V and 950 μF using the IBI GENEZAPPER (trademark IBI, New Haven, Conn., U.S.A.). The cells were incubated in 10% fetal calf serum, 2 mM glutamine, 100 U/ml penicillin-streptomycin, and 90% DMEM media (GIBCO, Grand Island, N.Y., U.S.A.) in 5% CO2 at 37° C. for three days before the binding assay.
To establish a stable cell line expressing cloned human NK1R, the cDNA was subcloned into the vector pRcCMV (INVITROGEN). Transfection of 20 ug of the plasmid DNA into CHO cells was achieved by electroporation in 800 μl of transfection buffer supplemented with 0.625 mg/ml Herring sperm DNA at 300 V and 950 μF using the IBI GENEZAPPER (IBI). The transfected cells were incubated. in CHO media [10% fetal calf serum, 100 U/ml penicillin-streptomycin, 2 mM glutamine, 1/500 hypoxanthinethymidine (ATCC), 90% IMDM media (JRH BIOSCIENCES, Lenexa, Kans., U.S.A.), 0.7 mg/ml G418 (GIBCO)] in 5% CO2 at 37° C. until colonies were visible. Each colony was separated and propagated. The cell clone with the highest number of human NK1R was selected for subsequent applications such as drug screening.
The binding assay of human NK1R expressed in either COS or CHO cells is based on the use of ^125 I-substance P (^125 I-SP, from DU PONT, Boston, Mass.) as a radioactively labeled ligand which competes with unlabeled substance P or any other ligand for binding to the human NK1R. […] The tubes were incubated at 4° C. or at room temperature for 1 hour with gentle shaking. The bound radioactivity was separated from unbound radioactivity by GF/C filter (BRANDEL, Gaithersburg, Md.) which was prewetted with 0.1% polyethylenimine. The filter was washed with 3 ml of wash buffer (50 mM Tris pH 7.5, 5 mM MnCl2, 150 mM NaCl) three times and its radioactivity was determined by gamma counter.
On to `N#Cc1cccc(COCC(N)C(c2ccccc2)c2ccccc2)c1` (centres unmarked) [Example 29, 2-Ammoninm-1-((3-cyanophenyl)methyloxy)-3,3-diphenylpropane oxalate salt], for which the inhibition at 1 µM is 48%.

The experiment is the same for the next values; noted with them: 1 h; @ 03 μM; read-out: Substance P antagonism (%).
For `O=C(Nc1ccccc1)NC(COCc1cc(C(F)(F)F)cc(C(F)(F)F)c1)C(c1ccccc1)c1ccccc1` (centres unmarked) [Example 43, N-(1-((3',5'-Bis(trifluoromethyl)phenyl)methyloxy)-3,3-diphenylprop-2-yl)-N'-phenylurea], the inhibition at 0.3 µM was found to be 50%.

The same experiment, now with this note: displacement of 125I-substance P; human NK1R in COS or CHO cells.
Regarding `NC(=O)CNC(COCc1cc(C(F)(F)F)cc(C(F)(F)F)c1)C(c1ccccc1)c1ccccc1` (centres unmarked) [Example 30, 1-((3,5-Bis(trifluoromethyl)phenyl)methyloxy)-2-((carboxamido)methyl)ammoninm)-3,3-diphenylpropane oxalate salt], the IC50 is 0.4 nM. Same read-out and setting: the same measure for `NC(COCc1cccc(Br)c1)C(c1ccccc1)c1ccccc1` (centres unmarked) [Example 31, 2-Ammonium-1-((3-bromophenyl)methyloxy)-3,3-diphenylpropane oxalate salt]: 200 nM. As to `NC(COCc1cc(Br)cc(Br)c1)C(c1ccccc1)c1ccccc1` (centres unmarked) [Example 32, 2-Ammonium-1-((3,5-dibromophenyl)methyloxy)-3,3-diphenylpropane oxalate salt], the IC50 was determined as 30 nM. Take `Cc1cc(Br)cc(COCC(N)C(c2ccccc2)c2ccccc2)c1` (centres unmarked) [Example 33, 2-Ammonium-1-((3-bromo-5-methylphenyl)methyloxy)-3,3-diphenylpropane oxalate salt]: the IC50 worked out at 20 nM. Still for that read-out and setting: the same measure for `N#CCNC(COCc1cc(C(F)(F)F)cc(C(F)(F)F)c1)C(c1ccccc1)c1ccccc1` (centres unmarked) [Example 34, 1-((3,5-Bis(trifluoromethyl)phenyl)methyloxy)-2-(cyanomethyl)amino-3,3-diphenylpropane]: 10 nM.

Turning to `Cc1cc(C)cc(COCC(C(c2ccccc2)c2ccccc2)N(C)CC(N)=O)c1` (centres unmarked) [Example 36, 2-(N-((Carboxamido)methyl)-N-methyl)ammonium-1-((3,5-dimethylphenyl)methyloxy)-3,3-diphenyl propane oxalate salt], the IC50 amounted to 7 nM. `CC(=O)N(C)C(COCc1cc(C)cc(C)c1)C(c1ccccc1)c1ccccc1` (centres unmarked) [Example 37] displayed an IC50 of 200 nM.

Molecule `CC(=O)NC(COCc1cc(C)cc(C)c1)C(c1ccccc1)c1ccccc1` (centres unmarked) [Example 38, 2-Acetamido-1-(((3,5-dimethyl)phenyl)methyloxy)-3,3-diphenylpronane] returned an IC50 of 70 nM. In turn, `Cc1cc(C)cc(COCC(C(c2ccccc2)c2ccccc2)N(C)C(=O)c2ccccc2)c1` (centres unmarked) [Example 39, 2-(((N-Methyl)benzamido)-1-((3,5-dimethyl)phenyl)methyloxy)-3,3-diphenylpropane] registered an IC50 of 800 nM.

Consider `Cc1cc(C)cc(COCC(NC(=O)c2ccccc2)C(c2ccccc2)c2ccccc2)c1` (centres unmarked) [Example 40, 2-Benzamido-1-(((3,5-dimethyl)phenyl)methyloxy)3,3-diphenylpropane], for which the IC50 came to 580 nM. On to `CNC(=O)NC(COCc1cc(C(F)(F)F)cc(C(F)(F)F)c1)C(c1ccccc1)c1ccccc1` (centres unmarked) [Example 42, N-(1-((3',5'-Bis(trifluoromethyl)phenyl)methyloxy)-3,3-diphenylprop-2-yl)-N'-methyl urea], for which the concentration for half-maximal inhibition (IC50) was determined as 40 nM. In turn, `O=C(O)CNC(COCc1cc(C(F)(F)F)cc(C(F)(F)F)c1)C(c1ccccc1)c1ccccc1` (centres unmarked) [Example 44, N-(1-((3',5'-Bis(trifluoromethyl)phenyl)methyloxy)-3,3-diphenylprop-2-yl)glycine] returned an IC50 of 15 nM. Take `Cc1cc(C)cc(COCC(NCC(=O)O)C(c2ccccc2)c2ccccc2)c1` (centres unmarked) [Example 45, N-(1-(((3',5'-Dimethyl)phenyl)methyloxy)-3,3-diphenylprop-2-yl)glycine]: the IC50 turned out to be 40 nM. Molecule `Cc1cc(C)cc(COCC(NCC(=O)NCC(N)=O)C(c2ccccc2)c2ccccc2)c1` (centres unmarked) [Example 46, N-(1-(((3',5'-Dimethyl)phenyl)methyloxy)-3,3-diphenylprop-2-yl)glycylglycine amide] came in with an IC50 of 4 nM. `Cc1cc(C)cc(COCC(NCC(=O)NCc2ccccc2)C(c2ccccc2)c2ccccc2)c1` (centres unmarked) [Example 47, N-(1-(((3',5'-Dimethyl)phenyl)methyloxy)-3,3-diphenylprop-2-yl)glycylbenzamide oxalate salt]: the IC50 was found to be 15 nM. For the molecule `CN(C)C(=O)CNC(COCc1cc(C(F)(F)F)cc(C(F)(F)F)c1)C(c1ccccc1)c1ccccc1` (centres unmarked) [Example 48, N-(1-((3',5'-Bis(trifluoromethyl)phenyl)methyloxy)-3,3-diphenylprop-2-yl)glycine dimethylamide hydrochloride salt], the IC50 was 10 nM. The molecule `CN(C)C(=O)CN(C)C(COCc1cc(C(F)(F)F)cc(C(F)(F)F)c1)C(c1ccccc1)c1ccccc1` (centres unmarked) [Example 49, N-(1-((3',5'-Bis(trifluoromethyl)phenyl)methyloxy)-3,3-diphenylprop-2-yl)-N-methylglycine dimethylamide oxalate salt] yielded an IC50 of 15 nM. `O=C(CNC(COCc1cc(C(F)(F)F)cc(C(F)(F)F)c1)C(c1ccccc1)c1ccccc1)NCCO` (centres unmarked) [Example 50, N-(1-((3',5'-Bis(trifluoromethyl)phenyl)methyloxy)-3,3-diphenylprop-2-yl)glycine 2-hydroxyethylamide] gave an IC50 of 1 nM. In the case of `COCCNC(=O)CNC(COCc1cc(C(F)(F)F)cc(C(F)(F)F)c1)C(c1ccccc1)c1ccccc1` (centres unmarked) [Example 51, N-(1-((3',5'-Bis(trifluoromethyl)phenyl)methyloxy)-3,3-diphenylprop-2-yl)glycine 2-methoxyethylamide], the IC50 came to 1 nM.

On to `CN(C)CCNC(=O)CNC(COCc1cc(C(F)(F)F)cc(C(F)(F)F)c1)C(c1ccccc1)c1ccccc1` (centres unmarked) [Example 52, N-(1-((3',5'-Bis(trifluoromethyl)phenyl)methyloxy)-3,3-diphenylprop-2-yl)glycine N',N'-dimethylethylamide bis oxalate salt], for which the IC50 worked out at 1 nM. Still for that read-out and setting: for `CNC(=O)CN(C)C(COCc1cc(C(F)(F)F)cc(C(F)(F)F)c1)C(c1ccccc1)c1ccccc1` (centres unmarked) [Example 54, 1-((3,5-Bis(trifluoromethyl)phenyl)methyloxy)-2-((N-((methylcarboxamido)methyl)-N-methyl)amino)-3,3-diphenylpropane monohydrate] the value was 2 nM; for `Cc1cc(C)cc(COC[C@H](C(c2ccccc2)c2ccccc2)N(C)C)c1` [Example 55, (S)-2-Dimethylammonium-1-((3,5-dimethylphenyl)methyloxy)-3,3-diphenylpropane Oxalate salt], 2 nM; for `Cc1cc(C)cc(COC[C@@H](C(c2ccccc2)c2ccccc2)N(C)C)c1` [Example 56, (R)-2-Dimethylammonium-1-((3,5-dimethylphenyl)methyloxy)-3,3-diphenylpropane tosylate salt], 18 nM. The molecule `NC(=O)CN[C@H](COCc1cc(C(F)(F)F)cc(C(F)(F)F)c1)C(c1ccccc1)c1ccccc1` [Example 57, (S)-1-((3',5'-Bis(trifluoromethyl)phenyl)methyloxy)-2-(((carboxamido)methyl)ammonium)-3,3-diphenylpropane oxalate salt] came in with an IC50 of 0.8 nM. As to `O=C(CCl)NC(COCc1cc(C(F)(F)F)cc(C(F)(F)F)c1)C(c1ccccc1)c1ccccc1` (centres unmarked) [Example 60], the IC50 is 80 nM.

Molecule `NCC(=O)NC(COCc1cc(C(F)(F)F)cc(C(F)(F)F)c1)C(c1ccccc1)c1ccccc1` (centres unmarked) [Example 61, 2-(2-Ammoniumacetamido)-1-((3,5-bis(trifluoromethyl)phenyl)methyloxy)-3,3-diphenylpropane oxalate salt hemihydrate] gave an IC50 of 30 nM. Molecule `CN(C)CC(=O)NC(COCc1cc(C(F)(F)F)cc(C(F)(F)F)c1)C(c1ccccc1)c1ccccc1` (centres unmarked) [Example 62, 2-(2-(Dimethylamino)acetamido)-1-((3,5-bis(trifluoromethyl)phenyl)methyloxy)-3,3-diphenylpropane] gave an IC50 of 200 nM.

The record behind these values is patent publication US5629347A, “Aromatic compounds, pharmaceutical compositions containing them and their use in therapy” (Merck Sharp & Dohme Ltd., priority 1991, dated 1997).
